Laboratory results published in US20240116985A1, “STAPLED PEPTIDES AND METHODS THEREOF” (priority 2020, published 2024).
Where two headings read alike, the source gives them in different places.

Target: T1, full-length beta-Catenin (Uniprot ID P35222) (Homo sapiens, UniProt P35222)
T1 construct: 10 nM full-length beta-Catenin (Uniprot ID P35222)
T1 sequence (P35222 1-781): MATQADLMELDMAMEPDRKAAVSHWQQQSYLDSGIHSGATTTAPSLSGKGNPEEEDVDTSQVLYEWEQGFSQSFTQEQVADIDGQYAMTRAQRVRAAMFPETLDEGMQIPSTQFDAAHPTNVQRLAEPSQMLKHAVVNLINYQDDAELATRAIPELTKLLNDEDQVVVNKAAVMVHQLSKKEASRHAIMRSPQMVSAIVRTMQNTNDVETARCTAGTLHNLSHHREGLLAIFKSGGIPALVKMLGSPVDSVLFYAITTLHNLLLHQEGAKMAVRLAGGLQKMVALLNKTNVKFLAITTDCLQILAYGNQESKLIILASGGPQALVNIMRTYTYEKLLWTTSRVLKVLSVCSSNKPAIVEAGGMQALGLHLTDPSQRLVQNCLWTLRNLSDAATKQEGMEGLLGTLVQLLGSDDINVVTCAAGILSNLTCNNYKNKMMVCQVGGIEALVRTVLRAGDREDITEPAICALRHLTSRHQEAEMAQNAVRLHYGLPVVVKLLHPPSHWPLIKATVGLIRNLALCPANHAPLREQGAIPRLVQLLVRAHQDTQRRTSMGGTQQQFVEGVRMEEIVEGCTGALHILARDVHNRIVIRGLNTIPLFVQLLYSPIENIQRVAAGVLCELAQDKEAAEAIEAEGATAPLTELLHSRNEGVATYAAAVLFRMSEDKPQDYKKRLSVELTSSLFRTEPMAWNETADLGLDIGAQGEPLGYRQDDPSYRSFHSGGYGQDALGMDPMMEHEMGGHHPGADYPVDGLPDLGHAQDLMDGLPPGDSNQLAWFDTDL
Assay: Fluorescence polarization IC50 (beta-catenin / 5FAM-TCF4 10-53 competition)
Assay type: binding
Settings: fluorescence polarization

| IC50 (read-out: beta-Catenin FP IC50) | SMILES | IC50 (beta-Catenin FP IC50 (nM)) |
| --- | --- | --- |
| 5270 nM | CCOC(=O)C[C@@H]1NC(=O)[C@]2(CC=CCCCC3(CCCC=CCCCOC(=O)N4CC[C@@](C(=O)N[C@@H](Cc5ccsc5)C(=O)N[C@@H](Cc5csc6ccccc56)C(=O)N[C@@H](CCC(N)=O)C(N)=O)(C4)NC(=O)[C@H](CC(C)C)NC(=O)[C@H](Cc4ccccc4)NC(=O)[C@H](C)NC(=O)[C@H](C)NC(=O)[C@H](CC(=O)O)NC(=O)[C@H](CC(=O)O)NC3=O)NC(=O)[C@H](CC(C)(C)C)NC1=O)CCCN2C(C)=O (stereo partly drawn) [I-2356, Ac-PL3-[Et]AspE-Npg-B5-Asp-Asp-Ala-Ala-Phe-Leu-PyrS2-3Thi-BztA-Gln-NH2] |  |
| 463 nM | CCOC(=O)C[C@@H]1NC(=O)[C@H](CC(=O)O)NC(=O)C2(CCCC=CCCCOC(=O)N3CC[C@@](C(=O)N[C@@H](Cc4ccsc4)C(=O)N[C@@H](Cc4csc5ccccc45)C(=O)N[C@@H](CCC(N)=O)C(N)=O)(C3)NC(=O)[C@H](CC(C)C)NC(=O)[C@H](Cc3ccccc3)NC(=O)[C@H](C)NC(=O)[C@H](C)NC1=O)CCCC=CC[C@]1(CCCN1C(C)=O)C(=O)N[C@@H](CC(=O)O)C(=O)N[C@@H](CC(C)(C)C)C(=O)N2 (stereo partly drawn) [I-2358, Ac-PL3-Asp-Npg-B5-Asp-[Et]AspE-Ala-Ala-Phe-Leu-PyrS2-3Thi-BztA-Gln-NH2] |  |
| 66 nM | COC(=O)N1CCC[C@]12CC=CCCCC1(CCCC=CCCCOC(=O)N3CC[C@@](C(=O)N[C@@H](Cc4ccsc4)C(=O)N[C@@H](Cc4csc5ccccc45)C(=O)N[C@@H](Cc4c[nH]cn4)C(N)=O)(C3)NC(=O)[C@H](CCC(N)=O)NC(=O)[C@H](Cc3ccccc3)NC(=O)[C@H](C)NC(=O)[C@H](C)NC(=O)[C@H](CC(=O)O)NC(=O)[C@H](CC(=O)O)NC1=O)NC(=O)[C@H](CC(C)(C)C)NC(=O)[C@H](CC(=O)O)NC2=O (stereo partly drawn) [I-2362, CO2Me-PL3-Asp-Npg-B5-Asp-Asp-Ala-Ala-Phe-Gln-PyrS2-3Thi-BztA-His-NH2] |  |
| 44 nM | CCCCOC(=O)N1CCC[C@]12CC=CCCCC1(CCCC=CCCCOC(=O)N3CC[C@@](C(=O)N[C@@H](Cc4ccsc4)C(=O)N[C@@H](Cc4csc5ccccc45)C(=O)N[C@@H](Cc4c[nH]cn4)C(N)=O)(C3)NC(=O)[C@H](CCC(N)=O)NC(=O)[C@H](Cc3ccccc3)NC(=O)[C@H](C)NC(=O)[C@H](C)NC(=O)[C@H](CC(=O)O)NC(=O)[C@H](CC(=O)O)NC1=O)NC(=O)[C@H](CC(C)(C)C)NC(=O)[C@H](CC(=O)O)NC2=O (stereo partly drawn) [I-2363, CO2Bu-PL3-Asp-Npg-B5-Asp-Asp-Ala-Ala-Phe-Gln-PyrS2-3Thi-BztA-His-NH2] |  |
| 116 nM | CC(C)COC(=O)N1CCC[C@]12CC=CCCCC1(CCCC=CCCCOC(=O)N3CC[C@@](C(=O)N[C@@H](Cc4ccsc4)C(=O)N[C@@H](Cc4csc5ccccc45)C(=O)N[C@@H](Cc4c[nH]cn4)C(N)=O)(C3)NC(=O)[C@H](CCC(N)=O)NC(=O)[C@H](Cc3ccccc3)NC(=O)[C@H](C)NC(=O)[C@H](C)NC(=O)[C@H](CC(=O)O)NC(=O)[C@H](CC(=O)O)NC1=O)NC(=O)[C@H](CC(C)(C)C)NC(=O)[C@H](CC(=O)O)NC2=O (stereo partly drawn) [I-2364, CO2iBu-PL3-Asp-Npg-B5-Asp-Asp-Ala-Ala-Phe-Gln-PyrS2-3Thi-BztA-His-NH2] |  |
| 3440 nM | CCOC(=O)CC[C@@H]1NC(=O)[C@H](CC(=O)O)NC(=O)C2(CCCC=CCCCOC(=O)N3CC[C@@](C(=O)N[C@@H](Cc4ccsc4)C(=O)N[C@@H](Cc4csc5ccccc45)C(=O)N[C@@H](CCC(N)=O)C(N)=O)(C3)NC(=O)[C@H](CC(C)C)NC(=O)[C@H](Cc3ccccc3)NC(=O)[C@H](C)NC(=O)[C@H](C)NC1=O)CCCC=CC[C@]1(CCCN1C(C)=O)C(=O)N[C@@H](CC(=O)O)C(=O)N[C@@H](CC(C)(C)C)C(=O)N2 (stereo partly drawn) [I-2365, Ac-PL3-Asp-Npg-B5-Asp-[Et]GluE-Ala-Ala-Phe-Leu-PyrS2-3Thi-BztA-Gln-NH2] |  |
| 1740 nM | COC(=O)CC[C@@H]1NC(=O)[C@H](CC(=O)O)NC(=O)C2(CCCC=CCCCOC(=O)N3CC[C@@](C(=O)N[C@@H](Cc4ccsc4)C(=O)N[C@@H](Cc4csc5ccccc45)C(=O)N[C@@H](CCC(N)=O)C(N)=O)(C3)NC(=O)[C@H](CC(C)C)NC(=O)[C@H](Cc3ccccc3)NC(=O)[C@H](C)NC(=O)[C@H](C)NC1=O)CCCC=CC[C@]1(CCCN1C(C)=O)C(=O)N[C@@H](CC(=O)O)C(=O)N[C@@H](CC(C)(C)C)C(=O)N2 (stereo partly drawn) [I-2366, Ac-PL3-Asp-Npg-B5-Asp-[Me]GluE-Ala-Ala-Phe-Leu-PyrS2-3Thi-BztA-Gln-NH2] |  |
| 12 nM | CC(=O)N1CCC[C@]12CC=CCCCC1(CCCC=CCCCOC(=O)N3CC[C@@](C(=O)N[C@@H](Cc4ccccc4C(F)(F)F)C(=O)N[C@@H](Cc4csc5ccccc45)C(=O)N[C@@H](CO)C(N)=O)(C3)NC(=O)[C@H](CC(C)C)NC(=O)[C@H](Cc3ccccc3)NC(=O)[C@H](C)NC(=O)[C@H](C)NC(=O)[C@H](Cn3cc(CCC(=O)O)nn3)NC(=O)[C@H](CC(=O)O)NC1=O)NC(=O)[C@H](CC(C)(C)C)NC(=O)[C@H](CC(=O)O)NC2=O (stereo partly drawn) [I-2370, Ac-PL3-Asp-Npg-B5-Asp-[CH2CH2CO2H]TriAzDap-Ala-Ala-Phe-Leu-PyrS2-2F3MeF-BztA-Ser-NH2] |  |
| 352 nM | CC(C)C[C@@H]1NC(=O)[C@H](Cc2ccccc2)NC(=O)[C@H](C)NC(=O)[C@H](C)NC(=O)[C@H](CN(CC(=O)O)CC(F)(F)F)NC(=O)[C@H](CC(=O)O)NC(=O)C2(CCCCCCCCOC(=O)N3CC[C@@](C(=O)N[C@@H](Cc4ccsc4)C(=O)N[C@@H](Cc4csc5ccccc45)C(=O)N[C@@H](CCC(N)=O)C(N)=O)(C3)NC1=O)CCCCCCOc1cccc(c1)C(=O)N[C@@H](CC(=O)O)C(=O)N[C@@H](CC(C)(C)C)C(=O)N2 (stereo partly drawn) [I-2376, BzAm3OAllyl-Asp-Npg-B5-Asp-TfeGA-Ala-Ala-Phe-Leu-PyrS2-3Thi-BztA-Gln-NH2] |  |
| 978 nM | CC(C)C[C@@H]1NC(=O)[C@H](Cc2ccccc2)NC(=O)[C@H](C)NC(=O)[C@H](C)NC(=O)[C@H](CN(CC(=O)O)CC(F)(F)F)NC(=O)[C@H](CC(=O)O)NC(=O)C2(CCCCCCCCOC(=O)N3CC[C@@](C(=O)N[C@@H](Cc4ccsc4)C(=O)N[C@@H](Cc4csc5ccccc45)C(=O)N[C@@H](CCC(N)=O)C(N)=O)(C3)NC1=O)CCCCCCOc1cccc(c1)C(=O)N1CCC[C@H]1C(=O)N[C@@H](CC(=O)O)C(=O)N[C@@H](CC(C)(C)C)C(=O)N2 (stereo partly drawn) [I-2377, ProBzAm3OAllyl-Asp-Npg-B5-Asp-TfeGA-Ala-Ala-Phe-Leu-PyrS2-3Thi-BztA-Gln-NH2] |  |
| 72 nM | CC(=O)N1CCC[C@]12CC=CCCCC1(CCCC=CCCCOC(=O)N3CC[C@@](C(=O)N[C@@H](Cc4ccccc4C(F)(F)F)C(=O)N[C@@H](Cc4csc5ccccc45)C(=O)N[C@@H](CCC(N)=O)C(=O)N[C@@H](CC(C)C)C(=O)NC4(C(N)=O)CC4)(C3)NC(=O)[C@H](CC(C)C)NC(=O)[C@H](Cc3ccccc3)NC(=O)[C@H](C)NC(=O)[C@H](C)NC(=O)[C@H](Cc3cccc(C(=O)O)c3)NC(=O)[C@H](CC(=O)O)NC1=O)NC(=O)[C@H](CC(C)(C)C)NC(=O)[C@H](CC(=O)O)NC2=O (stereo partly drawn) [I-2389, Ac-PL3-Asp-Npg-B5-Asp-3COOHF-Ala-Ala-Phe-Leu-PyrS2-2F3MeF-BztA-Gln-Leu-Cpg-NH2] |  |
| 781 nM | CC(C)C[C@@H]1NC(=O)[C@H](Cc2ccccc2)NC(=O)[C@H](C)NC(=O)[C@H](C)NC(=O)[C@H](CN(CC(=O)O)CC(F)(F)F)NC(=O)[C@H](CC(=O)O)NC(=O)C2(CCCCCCCCOC(=O)N3CC[C@@](C(=O)N[C@@H](Cc4ccsc4)C(=O)N[C@@H](Cc4csc5ccccc45)C(=O)N[C@@H](CCC(N)=O)C(N)=O)(C3)NC1=O)CCCCCCOc1cccc(c1)CC(=O)N[C@@H](CC(=O)O)C(=O)N[C@@H](CC(C)(C)C)C(=O)N2 (stereo partly drawn) [I-2404, PAc3OAllyl-Asp-Npg-B5-Asp-TfeGA-Ala-Ala-Phe-Leu-PyrS2-3Thi-BztA-Gln-NH2] |  |
| 568 nM | CC(C)C[C@@H]1NC(=O)[C@H](Cc2ccccc2)NC(=O)[C@H](C)NC(=O)[C@H](C)NC(=O)[C@H](CN(CC(=O)O)CC(F)(F)F)NC(=O)[C@H](CC(=O)O)NC(=O)C2(CCCCCCCCOC(=O)N3CC[C@@](C(=O)N[C@@H](Cc4ccsc4)C(=O)N[C@@H](Cc4csc5ccccc45)C(=O)N[C@@H](CCC(N)=O)C(N)=O)(C3)NC1=O)CCCCCCOc1cccc(c1)CC(=O)N1CCC[C@H]1C(=O)N[C@@H](CC(=O)O)C(=O)N[C@@H](CC(C)(C)C)C(=O)N2 (stereo partly drawn) [I-2405, ProPAc3OAllyl-Asp-Npg-B5-Asp-TfeGA-Ala-Ala-Phe-Leu-PyrS2-3Thi-BztA-Gln-NH2] |  |
|  | CC(=O)N1CC2CC1C(=O)N[C@@H](CC(=O)O)C(=O)N[C@@H](CC(C)(C)C)C(=O)NC1(CCCCCCCCOC(=O)N3CC[C@@](C(=O)N[C@@H](Cc4ccsc4)C(=O)N[C@@H](Cc4csc5ccccc45)C(=O)N[C@@H](CCC(N)=O)C(N)=O)(C3)NC(=O)[C@H](CC(C)C)NC(=O)[C@H](Cc3ccccc3)NC(=O)[C@H](C)NC(=O)[C@H](C)NC(=O)[C@H](CN(CC(=O)O)CC(F)(F)F)NC(=O)[C@H](CC(=O)O)NC1=O)CCCCCCOc1cccc(c1)CC(=O)O2 (stereo partly drawn) [I-2406, Ac-HypPAc3OAllyl-Asp-Npg-B5-Asp-TfeGA-Ala-Ala-Phe-Leu-PyrS2-3Thi-BztA-Gln-NH2] | 242 nM |
